Experiments:
Gram positive rods (S) = experiment: MBC (minimum bactericidal concentration) test in Wash NEXT reagent; format: cell-based
Experimental: (§1) The stock organisms were thawed and subbed prior to beginning the MBC test. Molds were subbed to SDA plates one week before, and the bacteria were subbed to TAT agar plates 24 hours prior to the start of the test. All plates were incubated at 32 degrees C.
Each bacterial organism was inoculated into 40 ml sterile saline in a centrifuge tube to create a density of MacFarland #1. Two serial dilutions of 1:100 were then made, resulting in 10^−2 and 10^−4 concentrations. Each dilution was vortexed before it was sampled, and sterile Eppendorf pipette tips were used to make each transfer. The 10^−4 dilution was spiral plated to yield the initial inoculum concentration.
(§2) MBC trays were set up with the prepared test reagent. Using a Matrix pipettor, 100 μl aliquots of reagent were distributed into the wells, diluting the amount of preservative from 100% to 10% increments, using unpreserved reagent as the diluent. In one row, 100% non-preserved reagent acted as a positive control and served as a benchmark for a full mat of growth. In well #12H, 100 μl unpreserved reagent was pipetted, and this well was not inoculated with organisms, as it served as the negative control. Once all of the trays were prepared, the prepared bacteria/mold suspensions were poured into the MBC inoculating trays. These were placed onto the reagent trays, and 0.01 ml inoculum was introduced into the 100 μl of reagent in each well.
(§3) This was done by dipping a sterile cotton swab into each well, and absorbing all of the liquid in the well. The swab was rolled onto a TAT agar plate ensuring that the entire swab touches the agar. Plates ware incubated at 32 degrees C. for 48 hours to 7 days, depending on the organism. Observations for growth were performed by a scoring matrix using + for a full mat, +/− for some growth, a numerical value for an actual colony count, and—for no growth.
(§4) Below are tables that contain the data obtained in Example 1. The MBC test is scored by (+) indicating a full grown mat of organisms, equivalent to the organisms in the unpreserved reagent. (+/−) indicates there is some kill evident disturbing that mat or bringing the quantities down to an almost countable level. An actual number is the actual number of colonies growing at that concentration of preservative. (−) indicates no growth found. The MBC trays were stored at room temperature for the entire test.
(§5) The materials and methods and analysis of the MBC test were the same as in Example 1.

[1] = tested on: Aspergillus glaucus- DMO (Q); experiment: as above; format: cell-based
Experimental: as §1
For the molds, each organism was inoculated into 40 ml sterile saline in a centrifuge tube to create a density of MacFarland #5. Two serial dilutions of 1:100 were then made, resulting in 10^−2 and 10^−4 concentrations. Each dilution was vortexed before it was sampled, and sterile Eppendorf pipette tips were used to make each transfer. The 10^−4 dilution was spiral plated to yield the initial inoculum concentration.
as §2, §3, §4, §5

Measured: MBC test growth score

gentamicin
9: [1]; 90% preservative, 14 day
10: [1]; 90% preservative, 7 day
36: [1]; 30% preservative, 14 day
29: [1]; 50% preservative, 7 day
22: [1]; 90% preservative, 72 hour
28: [1]; 50% preservative, 14 day
25: [1]; 60% preservative, 7 day
35: [1]; 40% preservative, 14 day
26: [1]; 60% preservative, 14 day
16: [1]; 80% preservative, 7 day
20: [1]; 70% preservative, 14 day
4: [1]; 100% preservative, 14 day
18: [1]; 100% preservative, 72 hour
5: [1]; 100% preservative, 7 day
+/−: [1]; 10% preservative, 48 hour | [1]; 10% preservative, 72 hour | [1]; 10% preservative, 7 day | [1]; 10% preservative, 14 day | [1]; 20% preservative, 48 hour | [1]; 20% preservative, 72 hour | [1]; 20% preservative, 7 day | [1]; 20% preservative, 14 day | [1]; 30% preservative, 48 hour | [1]; 30% preservative, 72 hour | [1]; 30% preservative, 7 day | [1]; 40% preservative, 48 hour | [1]; 40% preservative, 72 hour | [1]; 40% preservative, 7 day | [1]; 50% preservative, 48 hour | [1]; 50% preservative, 72 hour | [1]; 60% preservative, 48 hour | [1]; 60% preservative, 72 hour | [1]; 70% preservative, 48 hour | [1]; 70% preservative, 72 hour | [1]; 80% preservative, 48 hour | [1]; 80% preservative, 72 hour | [1]; 90% preservative, 48 hour | [1]; 100% preservative, 48 hour
21: [1]; 70% preservative, 7 day
+: [1]; 10% preservative, 8 hour | [1]; 10% preservative, 24 hour | [1]; 20% preservative, 8 hour | [1]; 20% preservative, 24 hour | [1]; 30% preservative, 8 hour | [1]; 30% preservative, 24 hour | [1]; 40% preservative, 8 hour | [1]; 40% preservative, 24 hour | [1]; 50% preservative, 8 hour | [1]; 50% preservative, 24 hour | [1]; 60% preservative, 8 hour | [1]; 60% preservative, 24 hour | [1]; 70% preservative, 8 hour | [1]; 70% preservative, 24 hour | [1]; 80% preservative, 8 hour | [1]; 80% preservative, 24 hour | [1]; 90% preservative, 8 hour | [1]; 90% preservative, 24 hour | [1]; 100% preservative, 8 hour | [1]; 100% preservative, 24 hour
14: [1]; 80% preservative, 14 day
−: Gram positive rods (S); 10% preservative, 8 hour | Gram positive rods (S); 10% preservative, 24 hour | Gram positive rods (S); 10% preservative, 48 hour | Gram positive rods (S); 10% preservative, 72 hour | Gram positive rods (S); 20% preservative, 8 hour | Gram positive rods (S); 20% preservative, 24 hour | Gram positive rods (S); 20% preservative, 48 hour | Gram positive rods (S); 20% preservative, 72 hour | Gram positive rods (S); 30% preservative, 8 hour | Gram positive rods (S); 30% preservative, 24 hour | Gram positive rods (S); 30% preservative, 48 hour | Gram positive rods (S); 30% preservative, 72 hour | Gram positive rods (S); 40% preservative, 8 hour | Gram positive rods (S); 40% preservative, 24 hour | Gram positive rods (S); 40% preservative, 48 hour | Gram positive rods (S); 40% preservative, 72 hour | Gram positive rods (S); 50% preservative, 8 hour | Gram positive rods (S); 50% preservative, 24 hour | Gram positive rods (S); 50% preservative, 48 hour | Gram positive rods (S); 50% preservative, 72 hour | Gram positive rods (S); 60% preservative, 8 hour | Gram positive rods (S); 60% preservative, 24 hour | Gram positive rods (S); 60% preservative, 48 hour | Gram positive rods (S); 60% preservative, 72 hour | Gram positive rods (S); 70% preservative, 8 hour | Gram positive rods (S); 70% preservative, 24 hour | Gram positive rods (S); 70% preservative, 48 hour | Gram positive rods (S); 70% preservative, 72 hour | Gram positive rods (S); 80% preservative, 8 hour | Gram positive rods (S); 80% preservative, 24 hour | Gram positive rods (S); 80% preservative, 48 hour | Gram positive rods (S); 80% preservative, 72 hour | Gram positive rods (S); 90% preservative, 8 hour | Gram positive rods (S); 90% preservative, 24 hour | Gram positive rods (S); 90% preservative, 48 hour | Gram positive rods (S); 90% preservative, 72 hour | Gram positive rods (S); 100% preservative, 8 hour | Gram positive rods (S); 100% preservative, 24 hour | Gram positive rods (S); 100% preservative, 48 hour | Gram positive rods (S); 100% preservative, 72 hour

Reference: patent US20140094424A1, “MICROBICIDAL COMPOSITIONS AND METHODS OF PRODUCTION USE THEREOF” (priority 2011, published 2014)
